The text below walks through data of paper PMC5395182, “Soaking suggests “alternative facts”: Only co-crystallization discloses major ligand-induced interface rearrangements of a homodimeric tRNA-binding protein indicating a novel mode-of-inhibition” (PLoS ONE, 2017).

The test system of one series is T1, TGT homodimer.
T1 construct: Strep-tag II (N, cleaved yes); made in house; host or cells: Escherichia coli
The experiment in a line: Native ESI-MS of TGT:ligand 1:10 mixtures (dimer destabilization). Set-up: species or system Zymomonas mobilis. As to conditions: for Relative proportion of TGT monomers: 2.5 µM TGT and 25 µM inhibitor (1:10), 1 M NH4Ac pH 7.5, without ligand 3.3 ± 0.7 %; for effect on TGT dimer stability / monomer proportion, in words: compared to measurements in the absence of any ligand, TGT:ligand 1:10. As to the method: In order to gain insights into the dimer disturbing potential seen in the crystal structures with the different ligands and to collect evidence for such a behavior also present in solution, native ESI-MS was performed. This technique enables to monitor the oligomerization state of TGT at equilibrium under non-denaturing conditions, in the absence or presence of saturating ligand concentrations. […] To ensure reliability, these comparative experiments were thus carried out adhering to strictly similar conditions (see Materials and methods).
Relative proportions of TGT-monomer signals extracted from individual 1:10 TGT:ligand mixtures (TGT monomer 2.5 μM) were quantified (S7 Fig, S1 Table) and normalized with respect to this value in the absence of any inhibitor.
Nano-ESI-MS analyses were performed as already described in the literature. Briefly, WT-TGT samples were exchanged twice against a 1 M ammonium acetate pH 7.5 buffer using microcentrifuge gel-filtration columns (Zeba 0.5 mL, Thermo Scientific). Next, protein concentration was determined spectrophotometrically at 280 nm (Nano-Drop 2000 spectrophotometer, Thermo Scientific).
Native MS experiments were carried out on a hybrid Q-TOF mass spectrometer (Synapt G2 HDMS, Waters) equipped with an automated chip-based nanoESI source (Triversa Nanomate, Advion Biosciences) operating in the positive ion mode. External calibrations were generated from the multiple charged ions produced by a 2 μM horse heart myoglobin solution diluted in a 1:1 (v/v) water: acetonitrile mixture acidified with 1% (v/v) formic acid (denaturing MS) and singly charged cesium iodide clusters diluted to 2 g∙L^-1 in a 1:1 (v/v) water: isopropanol solution (native MS).
Titration experiments in native conditions (1 M NH4Ac pH 7.5) were next triggered by mixing 2.5 μM TGT monomers with 25 μM of each ligand separately (ratio 1:10). The final DMSO concentration of each mixture never exceeded 0.25% (v/v). Non-covalent TGT dimers and TGT-ligand complexes were preserved in the gas phase according fine-tuned instrumental parameters, improving ion desolvation and transmission while maintaining intact structures (Vc = 80V, Pi = 6 mbar).
Relative quantification of TGT monomers was performed from charge states peak intensities of both monomeric (10 to 14+) and dimeric complexes (15 to 20+), using MassLynx 4.1 (Waters). TGT dimer disruption was determined for each ligand through their destabilization factor (Fig 8) which corresponds to their associated ratio of TGT monomers normalized from the apo-condition (S7 Fig; S1 Table). Standard deviations are calculated here from analytical triplicates. For the sake of reliability and comparability, all these experiments were performed within the same day, from identical experimental and instrumental conditions using the same buffer exchanged TGT batch (frozen and thawed only once).

Series [1] has as its target T2, Z. mobilis TGT (Zymomonas mobilis subsp. mobilis, UniProt P28720).
T2 construct: Strep-tag II (N, cleaved yes); made in house; host or cells: Escherichia coli
As to conditions: cited from earlier work; for Ki / affinity as described in words: radio-labeled assay, determined previously.

The target of series [2] is T2, Z. mobilis TGT. Briefly: Isothermal titration calorimetry (ITC) of ligand binding to TGT. As to conditions: for Kd / ΔG^0 / thermodynamic binding signature in words: ITC; for Kd: 298 K, direct titration; for ΔG^0: calculated at 298.15 K; for ΔH^0bind: ionization corrected (intercept of ΔH^0obs vs buffer ΔH^0ion); for -TΔΔS^0 / ΔΔH^0: relative to 1 used as reference; for protons picked up during binding: slope of linear regression, average over inhibitors 2 and 5. An excerpt: To further analyze the binding properties of ligands studied in this contribution we decided to establish the thermodynamic analysis of a representative subset via isothermal titration calorimetry (ITC) (data for 1 had been determined previously). ITC enables the simultaneous determination of affinity (Kd) and stoichiometry (n) as well as enthalpic contribution (ΔH^0). The entropic (-TΔS^0) term to Gibbs free energy (ΔG^0 = ΔH^0—TΔS^0) results from ΔG^0–ΔH^0 difference. Due to insufficient availability of some compounds in high purity, quantity and sufficient solubility to perform proper ITC measurements, we decided to focus our investigation on 1, 2, 3 and 5.
We recently discovered that the binding of lin-benzoguanine derivatives is associated with protonation effects that are superimposed to the heat signal of ligand binding to TGT. […] Such protonation effects become transparent when ITC measurements are performed from at least three different buffers (see Materials and methods). The overlaid […] of the protonation step was determined as the intersection of the linear regression line obtained by plotting the observed enthalpies of the studied ligands (ΔH^0obs) against the heat of ionization of the corresponding buffers (ΔH^0ion) (Fig 9a). […] The examined inhibitors 2 and 5, on average receive 0.61 ± 0.04 protons per mole of the formed complex, which is in reasonable agreement with the results obtained for 1 (0.89) and similar compounds [29].
ITC measurements were performed using a Microcal ITC200 calorimeter system from GE Healthcare. Z. mobilis TGT was dissolved in the ITC buffer (50 mM HEPES/Tricin/TRIS pH 7.8, 200 mM NaCl, 0.037% (v/v) Tween 20 and 3% (v/v) DMSO) to a final concentration of 10–20 μM.
The inhibitors were first dissolved in 100% (v/v) DMSO and diluted with the buffer solution to a final DMSO concentration of 3% (v/v). The concentration of the inhibitor in the syringe was adjusted to 200–300 μM with the ITC buffer. The reference cell contained filtered demineralized water. […] The initial delay before the injections were started was adjusted to 180–300 s and the spacing between each injection to 150–180 s. The first injection contained 0.3–0.6 μL of the inhibitor solution followed by injections of 1.0–2.4 μL until a saturation occurred. A stirring speed of 750 rpm was chosen. Raw data were collected as released heat per time. The direct titrations were done in three different buffers (HEPES/Tricin/TRIS) to correct for the overlaid protonation effect as previously described.The measured ΔH^0obs were plotted on the ordinate and the ionization enthalpy of the corresponding buffer ΔH^0ion on the abscissa (Fig 9). The positive slope of the linear regression line indicates how many protons per mole of formed complex are entrapped.
For estimation of binding affinity (Kd), Z. mobilis TGT was incubated with 90–100% saturation of inhibitor 3. Protein saturation was calculated according Rühmann et al. (2015). Inhibitor 1 as strong titrant was used to displace inhibitor 3.
For analysis of the raw data, peak integration, model fitting and evaluation, the programs NITPIC [57] and SEDPHAT [58] were used. The initial injection peak was removed and the areas of the remaining peaks were integrated. The correction of the heats of dilution was conducted by subtraction of the final constant injection peak area integrals. The A+B ↔ AB hetero-association model (1:1 stoichiometry) was applied, whereby ΔH^0 and Kd were directly obtained. The ΔG^0 and -TΔS^0 values were calculated using a temperature of 298.15 K. For illustration of the integrated raw data and the ITC isotherms, the program GUSSI was used. Obtained thermodynamic data per buffer are reported as mean values averaged over at least three measurements.

A short description of series [3]: Ligand dilution in native MS buffer (precipitation). Format: physicochemical. The settings on record: 1 M NH4Ac pH 7.5.
[4] abbreviates: HEPES buffer, Gibbs-Helmholtz equation.
[5] abbreviates: TRIS buffer, Gibbs-Helmholtz equation.
[6] abbreviates: Tricin buffer, Gibbs-Helmholtz equation.

Each structure is given as a SMILES string. Entries after “also recorded” stand apart in the source; their conditions may differ.

T2 sequence (P28720 whole entry): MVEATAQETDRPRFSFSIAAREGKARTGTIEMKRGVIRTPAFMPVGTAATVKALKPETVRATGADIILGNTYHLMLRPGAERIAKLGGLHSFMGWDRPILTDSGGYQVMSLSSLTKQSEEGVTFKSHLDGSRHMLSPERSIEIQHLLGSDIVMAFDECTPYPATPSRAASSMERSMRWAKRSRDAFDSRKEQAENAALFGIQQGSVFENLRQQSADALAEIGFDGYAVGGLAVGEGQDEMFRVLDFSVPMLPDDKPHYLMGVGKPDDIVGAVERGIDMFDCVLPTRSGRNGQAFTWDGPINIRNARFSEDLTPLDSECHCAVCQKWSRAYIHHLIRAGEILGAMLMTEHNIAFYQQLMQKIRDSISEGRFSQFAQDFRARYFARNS

For the compound `COc1ccc(CCc2c3nc[nH]c3cc3c(=O)[nH]c(N)nc23)cc1` [Inhibitor 7], in the series on TGT homodimer, the “Relative proportion of TGT monomers” value turned out to be 9.4% and the “effect on TGT dimer stability / monomer proportion, in words” value was “slightly increased proportion of TGT monomer”.

Turning to `Nc1nc2c(CCc3ccccc3)c3nc[nH]c3cc2c(=O)[nH]1` [Inhibitor 9], in the series with TGT homodimer, the “Relative proportion of TGT monomers” value is reported as 12.6% and the “effect on TGT dimer stability / monomer proportion, in words” value was “slightly increased proportion of TGT monomer; also recorded: most significant increase of normalized monomer proportion”.

For `CNc1nc2c(CCNCC3CCCC3)c3nc(N)[nH]c(=O)c3cc2[nH]1` [Inhibitor 5], at Z. mobilis TGT [1], the Ki was 2 ± 1 nM and the “Ki / affinity as described in words” value was “single-digit nanomolar”. In the series with TGT homodimer, the “Relative proportion of TGT monomers” value is given as 4.2% and the “effect on TGT dimer stability / monomer proportion, in words” value is listed as “No effect on dimer stability”. Moreover, the “ΔH^0obs” value at Z. mobilis TGT [2] (HEPES buffer) is -12 ± 0.813 kcal/mol. Also, the “-TΔS^0” value at Z. mobilis TGT [2] (setting [4]) amounted to 1.48 ± 0.884 kcal/mol. On Z. mobilis TGT [2], the Kd was found to be 32 ± 9 nM, the “ΔG^0” value is -10.3 ± 0.19 kcal/mol, the “ΔH^0bind” value is -14.8 kcal/mol and the “protons picked up during binding” value is 0.61 ± 0.04 protons per mole of the formed complex. The “ΔH^0obs” value at Z. mobilis TGT [2] (TRIS buffer) was -8.2 ± 0.526 kcal/mol. Moreover, on Z. mobilis TGT [2] (setting [5]), the “-TΔS^0” value is -1.98 ± 0.335 kcal/mol. Moreover, at Z. mobilis TGT [2] (Tricin buffer), the “ΔH^0obs” value was -10.3 ± 0.98 kcal/mol. For the same compound, the “-TΔS^0” value on Z. mobilis TGT [2] (setting [6]) was found to be 0.12 ± 0.789 kcal/mol. On Z. mobilis TGT [2] (ionization corrected), the “-TΔS^0” value was found to be 4.49 kcal/mol, the “-TΔΔS^0” value was -7.93 kcal/mol and the “ΔΔH^0” value worked out at 7.58 kcal/mol.

`CNc1nc2c(CC[C@H]3O[C@@H](OC)[C@H](O)[C@@H]3OC)c3nc(N)[nH]c(=O)c3cc2[nH]1` [Inhibitor 3]: the “Ki / affinity as described in words” value at Z. mobilis TGT [1] was “submicromolar; also recorded: three-digit nanomolar”. Further, in the series with TGT homodimer, the “Relative proportion of TGT monomers” value came to 9.6% and the “effect on TGT dimer stability / monomer proportion, in words” value is “slightly increased proportion of TGT monomer”. Moreover, on Z. mobilis TGT [2] (HEPES, Tricin, TRIS buffers, also up to 308 K in HEPES), the “heat signal in ITC, direct titration of ligand to TGT” value is given as “no heat effects at all could be detected; also recorded: no detectable heat signal”. Further, the “thermodynamic binding signature in words” value at Z. mobilis TGT [2] is reported as “overwhelmingly entropy-driven; also recorded: pure entropically-driven binding signature”. Moreover, the “heat signal in ITC displacement titration” value on Z. mobilis TGT [2] (TGT 100% saturated with 3, 1 as titrant, HEPES) is “again no heat signal was recorded”. Moreover, the “binding constant from ITC displacement experiments, in words” value at Z. mobilis TGT [2] (TGT saturated about 90% with 3, 1 as titrant) is given as “falls close to that of 1”.

For the compound `Cc1ccc(CCc2c3nc[nH]c3cc3c(=O)[nH]c(N)nc23)cc1` [Inhibitor 8], in the series on TGT homodimer, the “Relative proportion of TGT monomers” value was determined as 7.1% and the “effect on TGT dimer stability / monomer proportion, in words” value was “slightly increased proportion of TGT monomer”.

`Nc1nc2cc3nc[nH]c3cc2c(=O)[nH]1` [lin-benzoguanine, reference compound]: the Ki on Z. mobilis TGT [1] is 4100 ± 1000 nM.

In the case of `CNc1nc2c(CC[C@H]3O[C@@H](OC)[C@H](O)[C@@H]3O)c3nc(N)[nH]c(=O)c3cc2[nH]1` [Inhibitor 2], at Z. mobilis TGT [1], the Ki is 217 ± 81 nM and the “Ki / affinity as described in words” value is on record as “three-digit nanomolar”. For the same compound, in the series on TGT homodimer, the “Relative proportion of TGT monomers” value amounted to 5.3% and the “effect on TGT dimer stability / monomer proportion, in words” value was “No effect on dimer stability”. In addition, at Z. mobilis TGT [2] (HEPES buffer), the “ΔH^0obs” value is -9.61 ± 0.526 kcal/mol. In addition, the “-TΔS^0” value at Z. mobilis TGT [2] (setting [4]) was 0.574 ± 0.502 kcal/mol. On Z. mobilis TGT [2], the “thermodynamic binding signature in words” value is “more enthalpically favored binder”, the Kd came to 275 ± 49 nM, the “ΔG^0” value was -9.06 ± 0.096 kcal/mol and the “ΔH^0bind” value was -12.9 kcal/mol. Moreover, the “protons picked up during binding” value at Z. mobilis TGT [2] is recorded as 0.61 ± 0.04 protons per mole of the formed complex. For the same compound, the “ΔH^0obs” value at Z. mobilis TGT [2] (TRIS buffer) was -5.62 ± 0.478 kcal/mol. In addition, at Z. mobilis TGT [2] (setting [5]), the “-TΔS^0” value is -3.37 ± 0.382 kcal/mol. Besides, at Z. mobilis TGT [2] (Tricin buffer), the “ΔH^0obs” value is -8.51 ± 0.765 kcal/mol. Moreover, at Z. mobilis TGT [2] (setting [6]), the “-TΔS^0” value is -0.645 ± 0.645 kcal/mol. At Z. mobilis TGT [2] (ionization corrected), the “-TΔS^0” value stood at 3.8 kcal/mol, the “-TΔΔS^0” value is -8.63 kcal/mol and the “ΔΔH^0” value came out at 9.49 kcal/mol.

Take `CNc1nc2c(CCNCC3CCCCC3)c3nc(N)[nH]c(=O)c3cc2[nH]1` [Inhibitor 6]: the “Ki / affinity as described in words” value on Z. mobilis TGT [1] is given as “single-digit nanomolar”. Also, in the series with TGT homodimer, the “Relative proportion of TGT monomers” value is recorded as 2.5% and the “effect on TGT dimer stability / monomer proportion, in words” value is “did not exert any influence on dimer stability”. In series [3], the “precipitation upon ligand dilution in buffer” value is recorded as “partial precipitation; also recorded: apparent precipitation”.

Usually Ki stands for the dissociation constant of the complex between target and ligand, obtained from inhibition or displacement. The term Kd denotes the concentration at which binding is half-saturated. A high value points to a looser complex.
